# According to US20250040539A1, “COMPOSITION COMPRISING AN ANTIMICROBIAL AGENT AND A CARBOXAMIDE” (BASF SE, priority 2021, published 2025):
# How the values were obtained:
# Type in all cases: cell-based
# [1] = test system: bacterial mix: Escherichia coli DSM 1576, Alcaligenes faecalis DSM 13644, Pseudomonas aeuginosa ATCC 15442, Staphylococcus aureus ATCC 6538, Burkholderia …; assay: Preservative activity of a basic composition (10% PG in water, pH 7) with 2-phenoxyethanol against bacterial contamination (Example 2.1); conditions: 10% PG + 0.36% PE + 0.04% amide; for d7 [CFU/ml]: day 7; for d14 [CFU/ml]: day 14; for d21 [CFU/ml]: day 21
# Method: (§1) An aqueous composition of pH 7 comprising 10% by weight of propyleneglycol (PG) as organic solvent, 0.36% by weight of 2-phenoxyethanol (PE) as antimicrobial and 0.04% by weight of the amide listed in the below table was tested for its preserving activity against bacterial contamination (the weight percentages relate to the total weight of the composition). For this purpose, the samples were contaminated with a bacterial mix consisting of: • Escherichia coli DSM 1576 • Alcaligenes faecalis DSM 13644 • Pseudomonas aeuginosa ATCC 15442 • Staphylococcus aureus ATCC 6538 • Burkholderia cepacia DSM 7288 • Pseudomonas putida DSM 12735
# The samples were inoculated with the bacterial mix at day 0, 7 and 14 to obtain 10E+06 to 10E+07 CFU/ml inoculation in the test samples (compositions listed in the below table) consisting of 10% by weight of propylene glycol in water and stored at 25° C. for 21 days.
# (§2) CFU was determined before re-inoculation at days 7 and 14, and on day 21.
# [2] = test system: fungal mix (including yeasts and molds): Aspergillus brasiliensis DSM 1988, Rhodotorula mucilaginosa DSM 13621, Yarrowia lipolytica DSM 8218; assay: Preservative activity of a basic composition (10% PG in water, pH 7) with 2-phenoxyethanol against fungal contamination (Example 1.1); conditions: 10% PG + 0.36% PE + 0.04% Amide in water, pH 7, 25° C.; for d7 [CFU/ml]: fungal mix inoculated at day 0, 7 and 14 (1-3x10E+05 CFU/ml), day 7 before re-inoculation; for d14 [CFU/ml] / d21 [CFU/ml]: fungal mix inoculated at day 0, 7 and 14; for d14 [CFU/ml]: day 14 before re-inoculation; for d21 [CFU/ml]: day 21
# Method: An aqueous composition of pH 7 comprising 10% by weight of propyleneglycol (PG) as organic solvent, 0.36% by weight of 2-phenoxyethanol (PE) as antimicrobial and 0.04% by weight of the amide listed in the below table was tested for its preserving activity against fungal contamination (the percentages are weight percent and relate to the total weight of the composition). For this purpose, the samples were contaminated with a fungal mix (including yeasts and molds) consisting of: • Aspergillus brasiliensis DS M 1988 • Rhodotorula mucilaginosa DSM 13621 • Yarrowia lipolytica DS M 8218
# To control the efficacy, following control compositions were tested: • “Reference”, consisting of only 10% by weight of propylene glycol in water • “Comparative 1” containing 10% by weight of propylene glycol and amide in the given concentration, but no 2-phenoxyethanol • […] in the given concentration, but no amide.
# The samples were inoculated with the fungal mix at day 0, 7 and 14 to obtain a cell density in the range of 1-3×10E+05 CFU/ml (CFU=colony forming units) in the test samples (compositions listed in the below table) and stored at 25° C. for 21 days.
# as §2
# [3] = test system: bacterial mix: Escherichia coli DSM 1576, Alcaligenes faecalis DSM 13644, Pseudomonas aeruginosa ATCC 15442, Staphylococcus aureus ATCC 6538, Burkholderia …; assay: Preservative activity in a manual dishwashing composition (MDW, pH 7.1) with 2.0% 2-phenoxyethanol against bacterial mix (Example 2.4); conditions: for d7 [CFU/ml]: day 7; for d14 [CFU/ml]: day 14; for d21 [CFU/ml]: day 21
# Method: (§3) A manual dish wash detergent (MDW) of pH 7.1 containing the following components was used:
# (§4) The samples were contaminated with a bacterial mix consisting of: • Escherichia coli DSM 1576 • Alcaligenes faecalis DSM 13644 • Pseudomonas aeruginosa ATCC 15442 • Staphylococcus aureus ATCC 6538 • Burkholderia cepacia DSM 7288 • Pseudomonas putida DSM 12735
# The samples were inoculated with the bacterial mix at day 0 and 7 to obtain 10E+06 to 10E+07 CFU/ml inoculation in the test sample and stored at 25° C. for 21 days. CFU was determined before re-inoculation at day 7 and on days 14 and 21.
# Any CFU value at day 7 (d7), day 14 (d14) or day 21 (d21) obtained with a sample according to the invention containing 2-phenoxyethanol and amide (MDW+2.0% PE+x % Amide) lower than the respective value of the “comparative 2” example (MOW+2.0% by weight of 2-phenoxyethanol) indicates a better performance.
# [4] = test system: fungal mix: Aspergillus brasiliensis DSM 1988, Rhodotorula mucilaginosa DSM 13621, Yarrowia lipolytica DSM 8218; assay: Preservative activity in a manual dishwashing composition (MDW, pH 7.1) with 1.0% 2-phenoxyethanol against fungal mix (Example 1.2); conditions: for d7 [CFU/ml]: day 7; for d14 [CFU/ml]: day 14; for d21 [CFU/ml]: day 21
# Method: as §3
# The samples were contaminated with a fungal mix consisting of: • Aspergillus brasiliensis DSM 1988 • Rhodotorula mucilaginosa DSM 13621 • Yarrowia lipolytica DSM 8218
# The samples were inoculated with the fungal mix at day 0 and 7 to obtain 1-3×10E+05 CFU/ml inoculation in the test sample consisting of the above-defined dish wash detergent MDW and stored at 25° C. for 21 days. CFU was determined before re-inoculation at day 7, and on days 14 and 21.
# Any CFU value at d7, d14 or d21 obtained with a MDW sample of the invention containing 2-phenoxyethanol and amide (MDW+1.0% PE+x % of Amide) lower than the respective value of the comparative example (MDW+1.0% by weight of 2-phenoxyethanol) indicates a better performance of the inventive combination of 2-phenoxyethanol with the amide.
# [5] = test system: bacterial mix: Escherichia coli DSM 1576, Alcaligenes faecalis DSM 13644, Pseudomonas aeruginosa ATCC 15442, Staphylococcus aureus ATCC 6538, Burkholderia …; assay: Preservative activity in a manual dishwashing composition (MDW, pH 7.1) with 1.0% 2-phenoxyethanol against bacterial mix (Example 2.5); conditions: MDW + 1.0% PE + 1.0% amide
# Method: A manual dish wash detergent (MOW) of pH 7.1 containing the following components was used:
# as §4
# The samples were inoculated with the bacterial mix at day 0 and 7 to obtain 10E+06 to 10E+07 CFU/ml inoculation in the test sample and stored at 25° C. for 21 days. CFU was determined before re-inoculation at day 7 and on day 21.
# Any CFU value at day 7 (d7) or day 21 (d21) obtained with a sample according to the invention containing 2-phenoxyethanol and amide (MDW+1.0% PE+1.0% Amide) lower than the respective value of the comparative example (MDW+1% by weight of 2-phenoxyethanol) indicates a better performance.
# [6] = test system: bacterial mix: Escherichia coli DSM 1576, Alcaligenes faecalis DSM 13644, Pseudomonas aeruginosa ATCC 15442, Staphylococcus aureus ATCC 6538, Burkholderia …; assay: Preservative activity of a basic composition (10% PG in water, pH 7) with 4,4'-dichloro-2-hydroxydiphenyl ether (diclosan) against bacterial contamination (Example 2.2); conditions: day 7
# Method: as §1, with “0.015%” for “0.36%”, “4,4′-dichloro-2-hydroxydiphenyl ether (diclosan)” for “2-phenoxyethanol (PE)”, “0.04 or 0.1%” for “0.04%”, “amides” for “amide”, “aeruginosa” for “aeuginosa”
# The samples were inoculated with the bacterial mix at day 0 to obtain 10E+06 to 10E+07 CFU/ml inoculation in the test sample and stored at 25° C. for 7 days.
# CFU was determined at day 7.
# Any CFU value at day 7 (d7) obtained with a sample according to the invention containing diclosan and amide (10% PG+0.015% diclosan+Amide in water) lower than the respective value of the “comparative 3” example (10% by weight of propyleneglycol+0.015% by weight of 4,4′-dichloro-2-hydroxydiphenyl ether (diclosan) in water) indicates a better performance.
# [7] = MDW + 0.25% amide, no PE (Comparative 1c)
# [8] = MDW + 5.0% amide, no PE (Comparative 1a)
structure (smiles),measurement,setting,value
CCCCC(CC)CNC(=O)/C=C\C(=O)O (centres unmarked) [Maleic acid N-2-ethylhexyl-amide],d7 [CFU/ml],[1],545 CFU/ml
same,d14 [CFU/ml],[1],"22,000 CFU/ml"
same,d21 [CFU/ml],[1],"20,500 CFU/ml"
same,d7 [CFU/ml],[2],875 CFU/ml
same,d14 [CFU/ml],[2],"8,500 CFU/ml"
same,d21 [CFU/ml],[2],"18,500 CFU/ml"
same,d7 [CFU/ml],[3]; [7],">100,000 CFU/ml"
same,d14 [CFU/ml],[3]; [7],">100,000 CFU/ml"
same,d21 [CFU/ml],[3]; [7],">100,000 CFU/ml"
same,d7 [CFU/ml],"[3]; MDW + 1.0% amide, no PE",">100,000 CFU/ml"
same,d14 [CFU/ml],"[3]; MDW + 1.0% amide, no PE",">100,000 CFU/ml"
same,d21 [CFU/ml],"[3]; MDW + 1.0% amide, no PE",">100,000 CFU/ml"
same,d7 [CFU/ml],[3]; MDW + 2.0% PE + 0.25% amide,<10 CFU/ml
same,d14 [CFU/ml],[3]; MDW + 2.0% PE + 0.25% amide,<10 CFU/ml
same,d21 [CFU/ml],[3]; MDW + 2.0% PE + 0.25% amide,<10 CFU/ml
same,d7 [CFU/ml],[3]; MDW + 2.0% PE + 1.0% amide,<10 CFU/ml
same,d14 [CFU/ml],[3]; MDW + 2.0% PE + 1.0% amide,<10 CFU/ml
same,d21 [CFU/ml],[3]; MDW + 2.0% PE + 1.0% amide,<10 CFU/ml
same,d7 [CFU/ml],[3]; MDW + 2.0% PE + 5.0% amide,<10 CFU/ml
same,d14 [CFU/ml],[3]; MDW + 2.0% PE + 5.0% amide,<10 CFU/ml
same,d21 [CFU/ml],[3]; MDW + 2.0% PE + 5.0% amide,<10 CFU/ml
same,d7 [CFU/ml],[3]; [8],">100,000 CFU/ml"
same,d14 [CFU/ml],[3]; [8],">100,000 CFU/ml"
same,d21 [CFU/ml],[3]; [8],">100,000 CFU/ml"
same,d7 [CFU/ml],[4]; MDW + 1.0% PE + 0.6% amide,"14,500 CFU/ml"
same,d14 [CFU/ml],[4]; MDW + 1.0% PE + 0.6% amide,"2,900 CFU/ml"
same,d21 [CFU/ml],[4]; MDW + 1.0% PE + 0.6% amide,225 CFU/ml
"C=CCCCCCCCC(=O)N(C)C [N,N-dimethyl 9-decenoylamide]",d7 [CFU/ml],[5]; day 7,<10 CFU/ml
same,d21 [CFU/ml],[5]; day 21,<10 CFU/ml
"Oc1cc(Cl)ccc1Oc1ccc(Cl)cc1 [diclosan, 4,4′-dichloro-2-hydroxydiphenyl ether, reference compound]",d7 [CFU/ml],"[6]; 10% PG + 0.015% diclosan, no amide (Comparative)",">100,000 CFU/ml"
CCCCCCCCCC(=O)N1CCOCC1 [n-Decanoyl-morpholine],d7 [CFU/ml],[1],<10 CFU/ml
same,d14 [CFU/ml],[1],30 CFU/ml
same,d21 [CFU/ml],[1],190 CFU/ml
same,d7 [CFU/ml],[2],55 CFU/ml
same,d14 [CFU/ml],[2],<10 CFU/ml
same,d21 [CFU/ml],[2],35 CFU/ml
same,d7 [CFU/ml],[6]; 10% PG + 0.015% diclosan + 0.04% amide,"41,500 CFU/ml"
same,d7 [CFU/ml],"[6]; 10% PG + 0.04% amide, no diclosan (Comparative 1a)",">100,000 CFU/ml"
same,d7 [CFU/ml],[4]; MDW + 1.0% PE + 1.0% amide,"1,200 CFU/ml"
same,d14 [CFU/ml],[4]; MDW + 1.0% PE + 1.0% amide,305 CFU/ml
same,d21 [CFU/ml],[4]; MDW + 1.0% PE + 1.0% amide,245 CFU/ml
"CCCCCCCC(=O)N(C)C [n-Octanoyl-N,N-dimethylamide]",d7 [CFU/ml],[1],25 CFU/ml
same,d14 [CFU/ml],[1],"2,100 CFU/ml"
same,d21 [CFU/ml],[1],"5,550 CFU/ml"
"CCCCN(CCCC)C(=O)CC [n-Propanoyl-N,N-dibutylamide]",d7 [CFU/ml],[1],"39,500 CFU/ml"
same,d14 [CFU/ml],[1],"39,000 CFU/ml"
same,d21 [CFU/ml],[1],"23,500 CFU/ml"
same,d7 [CFU/ml],[2],"1,750 CFU/ml"
same,d14 [CFU/ml],[2],"3,750 CFU/ml"
same,d21 [CFU/ml],[2],"25,000 CFU/ml"
